{"source": "paper PMC7010297", "about": "“How the initiating ribosome copes with ppGpp to translate mRNAs” (PLoS Biology, 2020)", "key": {"30S-bound IF2 (30S IC)": {"target": "T1, 30S-bound IF2 (30S IC) (Escherichia coli, UniProt P0A705)", "T1 construct": "6xHis (N); made in house", "T1 sequence (P0A705 whole entry, looked up)": "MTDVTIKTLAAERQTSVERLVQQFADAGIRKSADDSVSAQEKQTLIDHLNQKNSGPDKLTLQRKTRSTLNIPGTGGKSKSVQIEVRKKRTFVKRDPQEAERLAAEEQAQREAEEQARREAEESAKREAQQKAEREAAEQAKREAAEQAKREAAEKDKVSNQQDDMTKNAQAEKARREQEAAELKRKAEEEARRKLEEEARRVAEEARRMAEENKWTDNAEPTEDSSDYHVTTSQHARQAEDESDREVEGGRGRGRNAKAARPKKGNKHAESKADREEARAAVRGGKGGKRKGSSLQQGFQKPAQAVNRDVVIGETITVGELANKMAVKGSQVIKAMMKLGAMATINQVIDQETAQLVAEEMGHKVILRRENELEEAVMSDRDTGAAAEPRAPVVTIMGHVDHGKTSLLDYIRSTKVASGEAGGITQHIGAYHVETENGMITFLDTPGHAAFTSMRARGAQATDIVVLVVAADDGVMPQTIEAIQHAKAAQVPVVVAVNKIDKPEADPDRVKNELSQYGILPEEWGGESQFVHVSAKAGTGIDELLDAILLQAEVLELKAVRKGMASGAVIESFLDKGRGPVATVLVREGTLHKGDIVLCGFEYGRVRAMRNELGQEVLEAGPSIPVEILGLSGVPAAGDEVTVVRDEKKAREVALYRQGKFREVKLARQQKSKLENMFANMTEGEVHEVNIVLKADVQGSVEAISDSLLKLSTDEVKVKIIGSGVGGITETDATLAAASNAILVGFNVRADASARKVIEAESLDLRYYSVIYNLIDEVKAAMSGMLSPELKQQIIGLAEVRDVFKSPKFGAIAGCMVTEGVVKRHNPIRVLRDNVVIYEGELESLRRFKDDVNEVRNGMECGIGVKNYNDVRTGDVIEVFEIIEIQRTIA", "experiment": "ppGpp (or GDP) to GTP competitive assay for 30S IC formation by MST", "assay_type": "binding", "procedure": "MST was calculated from the respective fluorescence time dependencies (S3 Fig). […] Symbols as in (B). […] Continuous lines indicate nonlinear regression fittings with quadratic (B and E) or same-site competition (G) functions. Three measurements were performed; mean and standard deviations are plotted (S1 Data).\n[…] Symbols are as indicated, 3 measurements were performed, and mean and standard deviation are plotted (S1 Data). Continuous lines show nonlinear regression fittings with a same-site inhibition model. […] (PDF) Click here for additional data file."}, "IF2-bound 30S IC": {"target": "T2, IF2-bound 30S IC (Escherichia coli, UniProt P0A705)", "T2 construct": "6xHis (N); made in house", "T2 sequence (P0A705 whole entry, looked up)": "as above", "experiment": "30S IC formation by MST, guanosine nucleotide titration;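 on MST Average: lower thermophoresis signal means Bpy-tRNAi dissociation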;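 on MST Replicates (a.u.): lower thermophoresis signal means Bpy-tRNAi dissociation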", "assay_type": "binding", "conditions": "for MST Average / MST Replicates (a.u.): Fig 2B (GDP/ppGpp series)", "method_in_brief": "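Binding of fluorescently labelled initiator tRNA (Bpy-tRNAi) to E. coli 30S subunits followed by microscale thermophoresis, titrating guanosine nucleotides at constant 1 μM IF2. Dissociation constants from quadratic nonlinear fits of Ff/Fi versus ligand concentration; three measurements, mean ± SD.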"}, "[1]": {"target": "T3, 70S pre-IC (50S joining to 30S IC) (Escherichia coli, UniProt P0A705)", "T3 construct": "6xHis (N); made in house", "T3 sequence (P0A705 whole entry, looked up)": "as above", "experiment": "70S pre-IC formation by light scattering, stopped-flow", "assay_type": "biochemical", "set-up": "K1, best-fit value / k2, best-fit value: unit not given here", "conditions": "for A0, best-fit value / K1, best-fit value / k2, best-fit value: fit Y=A0+A1*exp(-K1*x)+k2*x; for kfast (s-1) Avg: light scattering", "method_in_brief": "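Stopped-flow at 25 °C: 0.2 μM 30S ICs mixed with 0.6 μM 50S subunits; pre-IC formation followed by 90° light scattering (excitation 430 nm), accommodation by Bpy-tRNAi fluorescence (excitation 470 nm, 495-nm longpass). Averaged traces fitted by single or double exponentials to give kapp.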"}}, "note": "Several values for one entry are separate records, joined by “and”; a condition that tells them apart may be missing. Identical values can stand only once. Like-named read-outs stand apart in the source and are kept apart here.", "data": [{"compound": "Nc1nc2c(ncn2[C@@H]2O[C@H](COP(=O)(O)OP(=O)(O)O)[C@@H](O)[C@H]2O)c(=O)[nH]1", "note": "[GDP, guanosine diphosphate]", "values": [{"measurement": "IC50", "setting": "30S-bound IF2 (30S IC); mRNA mInfA, read-out: IC50 Average", "result": 126, "unit": "µM"}, {"measurement": "IC50", "setting": "30S-bound IF2 (30S IC); mRNA mInfA, read-out: IC50 Replicates", "result": "124 µM and 128 µM and 126 µM"}, {"measurement": "IC50", "setting": "30S-bound IF2 (30S IC); mRNA mMF1, read-out: IC50 Average", "result": 38.6, "unit": "µM"}, {"measurement": "IC50", "setting": "30S-bound IF2 (30S IC); mRNA mMF1, read-out: IC50 Replicates", "result": "37.5 µM and 39.6 µM and 38.8 µM"}, {"measurement": "IC50", "setting": "30S-bound IF2 (30S IC); mRNA mTufA, read-out: IC50 Average", "result": 173, "unit": "µM"}, {"measurement": "IC50", "setting": "30S-bound IF2 (30S IC); mRNA mTufA, read-out: IC50 Replicates", "result": "168 µM and 176 µM (2×)"}, {"measurement": "MST Average", "setting": "IF2-bound 30S IC; nucleotide 0.13 µM", "result": 933.71, "unit": "a.u."}, {"measurement": "MST Replicates (a.u.)", "setting": "IF2-bound 30S IC; nucleotide 0.13 µM, constant IF2 (1 μM)", "result": "931.66 a.u. and 934.22 a.u. and 933.66 a.u. and 935.28 a.u."}, {"measurement": "MST Average", "setting": "IF2-bound 30S IC; nucleotide 0.25 µM", "result": 934.55, "unit": "a.u."}, {"measurement": "MST Replicates (a.u.)", "setting": "IF2-bound 30S IC; nucleotide 0.25 µM", "result": "933.08 a.u. and 934.64 a.u. and 934.32 a.u. and 936.15 a.u."}, {"measurement": "MST Average", "setting": "IF2-bound 30S IC; nucleotide 0.50 µM", "result": 935.70, "unit": "a.u."}, {"measurement": "MST Replicates (a.u.)", "setting": "IF2-bound 30S IC; nucleotide 0.50 µM", "result": "933.41 a.u. and 935.59 a.u. and 935.81 a.u. and 937.99 a.u."}, {"measurement": "MST Average", "setting": "IF2-bound 30S IC; nucleotide 1.00 µM", "result": 937.58, "unit": "a.u."}, {"measurement": "MST Replicates (a.u.)", "setting": "IF2-bound 30S IC; nucleotide 1.00 µM", "result": "936.31 a.u. and 938.31 a.u. and 936.76 a.u. and 938.95 a.u."}, {"measurement": "MST Average", "setting": "IF2-bound 30S IC; nucleotide 2.00 µM", "result": 940.10, "unit": "a.u."}, {"measurement": "MST Replicates (a.u.)", "setting": "IF2-bound 30S IC; nucleotide 2.00 µM", "result": "938.98 a.u. and 940.66 a.u. and 939.47 a.u. and 941.28 a.u."}, {"measurement": "MST Average", "setting": "IF2-bound 30S IC; nucleotide 4.00 µM", "result": 942.84, "unit": "a.u."}, {"measurement": "MST Replicates (a.u.)", "setting": "IF2-bound 30S IC; nucleotide 4.00 µM", "result": "941.71 a.u. and 943.61 a.u. and 942.43 a.u. and 943.60 a.u."}, {"measurement": "MST Average", "setting": "IF2-bound 30S IC; nucleotide 8.00 µM", "result": 945.64, "unit": "a.u."}, {"measurement": "MST Replicates (a.u.)", "setting": "IF2-bound 30S IC; nucleotide 8.00 µM", "result": "944.41 a.u. and 946.59 a.u. and 945.06 a.u. and 946.52 a.u."}, {"measurement": "MST Average", "setting": "IF2-bound 30S IC; nucleotide 16.00 µM", "result": 952.27, "unit": "a.u."}, {"measurement": "MST Replicates (a.u.)", "setting": "IF2-bound 30S IC; nucleotide 16.00 µM", "result": "951.48 a.u. and 953.11 a.u. and 951.45 a.u. and 953.06 a.u."}, {"measurement": "MST Average", "setting": "IF2-bound 30S IC; nucleotide 31.00 µM", "result": 953.23, "unit": "a.u."}, {"measurement": "MST Replicates (a.u.)", "setting": "IF2-bound 30S IC; nucleotide 31.00 µM", "result": "951.79 a.u. and 954.63 a.u. and 951.76 a.u. and 954.74 a.u."}, {"measurement": "MST Average", "setting": "IF2-bound 30S IC; nucleotide 62.00 µM", "result": 952.59, "unit": "a.u."}, {"measurement": "MST Replicates (a.u.)", "setting": "IF2-bound 30S IC; nucleotide 62.00 µM", "result": "952.17 a.u. and 953.16 a.u. and 951.66 a.u. and 953.37 a.u."}, {"measurement": "MST Average", "setting": "IF2-bound 30S IC; nucleotide 125.00 µM", "result": 950.10, "unit": "a.u."}, {"measurement": "MST Replicates (a.u.)", "setting": "IF2-bound 30S IC; nucleotide 125.00 µM", "result": "949.56 a.u. and 950.68 a.u. and 949.29 a.u. and 950.89 a.u."}, {"measurement": "promotion of Bpy-tRNAi binding (thermophoresis) in guanosine nucleotide titration", "setting": "IF2-bound 30S IC; constant IF2 (1 μM)", "result": "failed to promote Bpy-tRNAi binding at any concentration"}, {"measurement": "efficiency (amplitude) of 70S pre-IC formation", "setting": "[1]; 0.2 mM nucleotide, no GTP", "result": "reduced efficiencies"}, {"measurement": "rapid 70S pre-IC formation in the absence of GTP", "setting": "[1]; 0.2 mM nucleotide, noncompetitive (S6 Fig)", "result": "some transitions"}, {"measurement": "A0, best-fit value", "setting": "[1]; mInfA", "result": 1.03}, {"measurement": "K1, best-fit value", "setting": "[1]; mInfA", "result": 1.58}, {"measurement": "k2, best-fit value", "setting": "[1]; mInfA", "result": "0.0017 and 0.00169"}, {"measurement": "A0, best-fit value", "setting": "[1]; mMF1", "result": 1.04}, {"measurement": "K1, best-fit value", "setting": "[1]; mMF1", "result": 2.79}, {"measurement": "k2, best-fit value", "setting": "[1]; mMF1", "result": 0.001}, {"measurement": "LS amplitude (a.u.) Avg", "setting": "[1]; mRNA mInfA", "result": 0.028, "unit": "a.u."}, {"measurement": "kfast (s-1) Avg", "setting": "[1]; mRNA mInfA", "result": 1.58, "unit": "s⁻¹"}, {"measurement": "LS amplitude (a.u.) Avg", "setting": "[1]; mRNA mMF1", "result": 0.027, "unit": "a.u."}, {"measurement": "kfast (s-1) Avg", "setting": "[1]; mRNA mMF1", "result": 2.79, "unit": "s⁻¹"}, {"measurement": "LS amplitude (a.u.) Avg", "setting": "[1]; mRNA mTufA", "result": 0.058, "unit": "a.u."}, {"measurement": "kfast (s-1) Avg", "setting": "[1]; mRNA mTufA", "result": 3.39, "unit": "s⁻¹"}, {"measurement": "A0, best-fit value", "setting": "[1]; mTufA", "result": 1.07}, {"measurement": "K1, best-fit value", "setting": "[1]; mTufA", "result": 3.39}, {"measurement": "k2, best-fit value", "setting": "[1]; mTufA", "result": "0.0016 and 0.00162"}]}]}
